Measurements from patent publication US20060014733A1, “Histamine-3 agonists and antagonists” (Pfizer Inc, priority 2004, published 2006).
pKi: −log10 of the molar value.

Each molecule was assayed against T1, rat histamine H3 receptors (Rattus norvegicus, UniProt Q9QYN8) (assay: Rat H3 binding (3H-N-methylhistamine displacement, rat frontal brain membranes)). Conditions: radioligand 1 nM 3H-N-methylhistamine, 1 hour incubation.
T1 construct: Frozen rat frontal brain or frozen human post-mortem frontal brain is homogenized; from tissue; host or cells: rat frontal brain membranes
T1 sequence (Q9QYN8 whole entry): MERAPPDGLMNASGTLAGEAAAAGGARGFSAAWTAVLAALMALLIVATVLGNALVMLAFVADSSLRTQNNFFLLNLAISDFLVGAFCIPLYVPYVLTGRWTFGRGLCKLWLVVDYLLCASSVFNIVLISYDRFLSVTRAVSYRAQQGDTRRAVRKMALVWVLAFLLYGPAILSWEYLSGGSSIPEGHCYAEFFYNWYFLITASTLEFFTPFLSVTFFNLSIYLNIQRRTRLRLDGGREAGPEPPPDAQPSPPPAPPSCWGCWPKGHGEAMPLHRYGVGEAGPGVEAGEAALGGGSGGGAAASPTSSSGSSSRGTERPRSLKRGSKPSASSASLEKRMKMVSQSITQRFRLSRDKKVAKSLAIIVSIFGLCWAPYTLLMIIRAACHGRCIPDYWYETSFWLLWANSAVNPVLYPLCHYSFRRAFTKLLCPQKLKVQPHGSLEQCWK
Experimental: The in vitro affinity of the compounds in the present invention at the rat or human histamine H3 receptors can be determined according to the following procedure. Frozen rat frontal brain or frozen human post-mortem frontal brain is homogenized in 20 volumes of cold 50 mM Tris HCl containing 2 mM MgCl2 (pH to 7.4 at 4 degrees C.). The homogenate is then centrifuged at 45,000 G for 10 minutes. The supernatant is decanted and the membrane pellet re-suspended by Polytron in cold 50 mM Tris HCl containing 2 mM MgCl2 (pH to 7.4 at 4 degrees C.) and centrifuged again. The final pellet is re-suspended in 50 mM Tris HCl containing 2 mM MgCl2 (pH to 7.4 at 25 degrees C.) at a concentration of 12 mg/mL. Dilutions of compounds are made in 10% DMSO/50 mM Tris buffer (pH 7.4) (at 10×final concentration, so that the final DMSO concentration is 1%). Incubations are initiated by the addition of membranes (200 microliters) to 96 well V-bottom polypropylene plates containing 25 microliters of drug dilutions and 25 microliters of radioligand (1 nM final concentration ^3H-N-methylhistamine). After a 1 hour incubation, assay samples are rapidly filtered through Whatman GF/B filters and rinsed with ice-cold 50 mM Tris buffer (pH 7.4) using a Skatron cell harvester. Radioactivity is quantified using a BetaPlate scintillation counter.

Row | Compound | pKi
1 | CC(=O)Nc1cccc(-c2ccc(CN3CC[C@H](N(C)C)C3)cc2)c1 [Example 44, (S)-N-[4′-(3-Dimethylamino-pyrrolidin-1-ylmethyl)-biphenyl-3-yl]-acetamide] | 6.86
2 | CC(=O)Nc1cccc(-c2ccc(CN3CC[C@@H](N(C)C)C3)cc2)c1 [Example 45, (R)-N-[4′-(3-Dimethylamino-pyrrolidin-1-ylmethyl)-biphenyl-3-yl]-acetamide] | 7.12
3 | CN(C)[C@@H]1CCN(Cc2ccc(C3CCNCC3)cc2)C1 [Example 46, (R)-[1-(4-piperidin-4-ylbenzyl)-pyrrolidin-3-yl]-dimethylamine] | 6.87

Stronger by pKi, values ahead:

Row | pKi | Compound
4 | 7.26 | CN(C)[C@H]1CCN(Cc2ccc(-c3ccc(S(C)(=O)=O)cc3)cc2)C1 [Example 42, (S)-[1-(4′-Methanesulfonyl-biphenyl-4-ylmethyl)-pyrrolidin-3-yl]-dimethylamine]
5 | 7.14 | CN(C)[C@@H]1CCN(Cc2ccc(-c3ccc(S(C)(=O)=O)cc3)cc2)C1 [Example 43, (R)-[1-(4′-Methanesulfonyl-biphenyl-4-ylmethyl)-pyrrolidin-3-yl]-dimethylamine]
6 | 7.48 | CN(C)[C@H]1CCN(Cc2ccc(C3CCNCC3)cc2)C1 [Example 47]
